Reference: ChEMBL document CHEMBL4831557, “Parthenolide Derivatives as PKM2 Activators Showing Potential in Colorectal Cancer” (J Med Chem, 2021)
Calls of active or inactive are those of the source. No cut-off for these calls is given here.

How the values were obtained:
[1] = test system: HT-29; experiment: Cytotoxicity against human HT-29 cells assessed as reduction in cell viability incubated for 48 hrs by MTT assay; type: functional, cell-based; details: HT-29, 48 h
[2] = test system: NCM460; experiment: Cytotoxicity against human NCM460 cells assessed as reduction in cell viability incubated for 48 hrs by MTT assay; type: cell-based; details: NCM460, 48 h
[3] = biological target: T1, Pyruvate kinase PKM (Homo sapiens, UniProt P14618); experiment: Binding affinity to recombinant human PKM2 assessed as covalent adduct formation incubated for 1 hr by LC-MS/MS analysis; details: filed as activator
[4] = test system: SW480; experiment: Induction of apoptosis in human SW480 cells after 48 hrs by Annexin V-PE and 7-AAD staining based flow cytometric analysis; type: functional, cell-based; details: dose 0.2-0.8 µM
[5] = test system: SW480; experiment: Antiproliferative activity against human SW480 cells at 0.1 to 0.4 uM measured after 48 hrs by EdU staining based confocal microscopic analysis; type: functional, cell-based; details: dose 0.1-0.4 µM
[6] = test system: HT-29; experiment: Induction of intracellular ROS production in human HT-29 cells at 0.45 to 1.8 uM incubated for 48 hrs by DCFH-DA staining based flow cytometry analysis; type: functional, cell-based; details: dose 0.45-1.8 µM
[7] = test system: SW480; experiment: Induction of intracellular ROS production in human SW480 cells at 0.2 to 0.6 uM incubated for 48 hrs by DCFH-DA staining based flow cytometry analysis; type: functional, cell-based; details: dose 0.2-0.6 µM
[8] = test system: HT-29; experiment: Effect on mitochondrial membrane potential in human HT-29 cells at 0.45 to 1.8 uM measured after 48 hrs by JC-1 staining based assay; type: functional, cell-based; details: dose 0.45-1.8 µM
[9] = test system: HT-29; experiment: Induction of apoptosis in human HT-29 cells assessed as increase in cleaved PARP expression at 0.45 to 1.8 uM after 48 hrs by Western blotting analysis; type: functional, cell-based; details: dose 0.45-1.8 µM
[10] = test system: SW480; experiment: Induction of cell cycle arrest in human […] cells assessed as accumulation of cells at G2/M phase after 48 hrs by PI staining based flow cytometric analysis; type: functional; details: dose 0.2-0.6 µM
[11] = test system: HT-29; experiment: Antimigratory activity against human HT-29 cells; type: functional, cell-based
[12] = biological target: T1, Pyruvate kinase PKM; experiment: Inhibition of PKM2/STAT3 in human HT-29 cells assessed as reduction in C-myc protein expression at 0.45 to 1.8 uM incubated for 48 hrs by Western blot analysis; type: cell-based; details: dose 0.45-1.8 µM
[13] = test system: A549; experiment: cells; details: Homo sapiens, A549, 48 h

T1 sequence (P14618 2-531 limits assumed): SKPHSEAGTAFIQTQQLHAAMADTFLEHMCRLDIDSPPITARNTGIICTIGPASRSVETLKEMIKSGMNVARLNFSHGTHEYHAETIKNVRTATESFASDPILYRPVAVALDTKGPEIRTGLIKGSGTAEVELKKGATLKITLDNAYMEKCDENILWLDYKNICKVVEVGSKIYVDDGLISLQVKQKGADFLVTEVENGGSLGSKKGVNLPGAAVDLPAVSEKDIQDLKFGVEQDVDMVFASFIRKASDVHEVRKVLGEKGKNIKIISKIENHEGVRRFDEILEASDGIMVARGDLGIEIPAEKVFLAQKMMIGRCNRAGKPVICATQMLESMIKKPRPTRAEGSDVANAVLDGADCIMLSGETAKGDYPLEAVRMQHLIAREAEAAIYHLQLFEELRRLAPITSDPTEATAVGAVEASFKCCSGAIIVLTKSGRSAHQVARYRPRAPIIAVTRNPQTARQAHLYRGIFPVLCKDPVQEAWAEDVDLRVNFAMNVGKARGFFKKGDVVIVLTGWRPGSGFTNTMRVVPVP

Q: With `C=C1C(=O)O[C@H]2[C@H]1CC/C(COC(=O)c1ccc3nccc(Br)c3c1)=C/CC[C@@]1(C)O[C@@H]21` as the compound, how does the IC50 [1] read?
A: 660 nM

Q: And the IC50 [2]?
A: 2020 nM

Q: What about the Activity [3] of the same compound?
A: Active

Q: What about the Activity [4] of the same compound?
A: Dose-Dependent Effect

Q: And the Activity [5]?
A: Active

Q: And the Activity [6]?
A: Active

Q: And the Activity [7]?
A: Active

Q: And the Activity [8]?
A: Active

Q: And the Activity [9]?
A: Active

Q: What about the Activity [10] of the same compound?
A: Dose-Dependent Effect

Q: And the Activity [11]?
A: Active

Q: What about the inhibition [12] of the same compound?
A: Active

Q: What about the IC50 [13] of the same compound?
A: 1670 nM
